Data: patent US20220362312A1, “CANNABIDIOL-ENHANCED PROBIOTIC COMPOSITIONS AND USES THEREOF FOR TREATMENT OF INFECTIONS” (BUZZELET DEVELOPMENT AND TECHNOLOGIES LTD., priority 2019, published 2022)

Experiments:
[1] = test system: Candida albicans; assay: Candida albicans biofilm formation with cannabidiol and/or lactobacillus Casei, crystal violet staining; type: cell-based; settings: as compared to Candida albicans alone (row 4); incubation 24 hours
Method: A study is performed to evaluate the efficacy of a composition comprising cannabidiol and lactobacillus Casei in treating or preventing an infection by pathogenic microorganisms comprising Candida albicans, via preventing biofilm formation.
RPMI medium supplemented with 1% glucose is introduced into each well of a 24-well plate.
Candida albicans contacted with cannabidiol are added to each well of row 1.
Candida albicans contacted with lactobacillus Casei are added to each well of row 2.
Candida albicans contacted with cannabidiol and lactobacillus Casei are added to each well of row 3.
Candida albicans alone are added to each well of row 4.
After incubation for 24 hours, spent medium and free-floating fungi are removed by gentle aspiration and the wells washed twice with phosphate-buffered saline (PBS, pH 7.4).
The presence of biofilm is quantified by crystal violet staining as described above for Example 3.

[2] = test system: Escherichia coli; assay: Disc-diffusion agar method, antibacterial effect; settings: for growth inhibition: 48 hours at 30° C.; for effect on growth: at the concentrations tested (0.5 μg and 2 μg)
[3] = test system: Bacillus Thuringiensis; assay: Disc-diffusion agar method, antibacterial effect; settings: for area of inhibited bacterial growth / growth inhibition: 48 hours at 30° C.; for effect on growth: at the concentrations tested (0.5 μg and 2 μg)
[4] = test system: Staphylococcus Aureus; assay: Disc-diffusion agar method, antibacterial effect; settings: for growth inhibition: 48 hours at 30° C.; for effect on growth: at the concentrations tested (0.5 μg and 2 μg)
[5] = test system: Lactobacillus casei; assay: Disc-diffusion agar method, antibacterial effect; settings: for growth inhibition: Lactobacillus casei, 48 hours at 30° C.; for effect on growth: lactobacillus Casei, at the concentrations tested (0.5 μg and 2 μg)

Q: Which biofilm formation [1] does the source give for `C=C(C)[C@@H]1CCC(C)=C[C@H]1c1c(O)cc(CCCCC)cc1O` [CBD, cannabidiol] here?
A: significantly inhibited

Q: What about the growth inhibition ([2]; 0.5 μg on disc) of the same molecule?
A: −

Q: And the growth inhibition ([2]; 2 μg on disc)?
A: −

Q: And the “effect on growth” value [2]?
A: no effect

Q: And the “area of inhibited bacterial growth” value ([3]; 0.5 μg on disc)?
A: 2 mm

Q: And the growth inhibition ([3]; 0.5 μg on disc)?
A: +

Q: And the “area of inhibited bacterial growth” value ([3]; 2 μg on disc)?
A: 3 mm

Q: And the growth inhibition ([3]; 2 μg on disc)?
A: +

Q: And the “effect on growth” value [3]?
A: inhibit growth

Q: And the growth inhibition ([4]; 0.5 μg on disc)?
A: −

Q: And the growth inhibition ([4]; 2 μg on disc)?
A: −

Q: What about the “effect on growth” value [4] of the same molecule?
A: no effect

Q: What about the growth inhibition ([5]; 0.5 μg on disc) of the same molecule?
A: −

Q: What about the growth inhibition ([5]; 2 μg on disc) of the same molecule?
A: −

Q: And the “effect on growth” value [5]?
A: no effect

Q: What does the source list for `CCCCCc1cc(O)c2c(c1)OC(C)(C)[C@@H]1CCC(C)=C[C@@H]21` [THC, tetrahydrocannabiniol]?
A: growth inhibition ([2]; 0.5 μg on disc): −; growth inhibition ([2]; 2 μg on disc): −; effect on growth [2]: no effect; area of inhibited bacterial growth ([3]; 0.5 μg on disc): 1 mm; growth inhibition ([3]; 0.5 μg on disc): +; area of inhibited bacterial growth ([3]; 2 μg on disc): < 1 mm; growth inhibition ([3]; 2 μg on disc): +; effect on growth [3]: inhibit growth; growth inhibition ([4]; 0.5 μg on disc): −; growth inhibition ([4]; 2 μg on disc): −; effect on growth [4]: no effect; growth inhibition ([5]; 0.5 μg on disc): −; growth inhibition ([5]; 2 μg on disc): −; effect on growth [5]: no effect
